Experimental data reported in ChEMBL document CHEMBL1139808, “Structure-activity relationship study of novel NR2B-selective antagonists with arylamides to avoid reactive metabolites formation” (Bioorg Med Chem Lett, 2007).

What was measured:
[1] = target: Glutamate receptor ionotropic, NMDA 2B (Rattus norvegicus, UniProt P35439+Q00960); test: Displacement of [3H]racemic CP-101606 from rat NR2B receptor in P2 membrane; format: cell membranes
[2] = Bioavailability in rat; format: ADME, organism-based; conditions: in vivo
Mus musculus = species: Mus musculus; test: Analgesic activity in PSL mouse model assessed as latency to paw withdrawal; format: functional; conditions: read-out: MED
[3] = target: Voltage-gated inwardly rectifying potassium channel KCNH2 (Homo sapiens, UniProt Q12809); test: Inhibition of hERG; format: toxicity
Sequence of Voltage-gated inwardly rectifying potassium channel KCNH2 (Q12809 whole entry): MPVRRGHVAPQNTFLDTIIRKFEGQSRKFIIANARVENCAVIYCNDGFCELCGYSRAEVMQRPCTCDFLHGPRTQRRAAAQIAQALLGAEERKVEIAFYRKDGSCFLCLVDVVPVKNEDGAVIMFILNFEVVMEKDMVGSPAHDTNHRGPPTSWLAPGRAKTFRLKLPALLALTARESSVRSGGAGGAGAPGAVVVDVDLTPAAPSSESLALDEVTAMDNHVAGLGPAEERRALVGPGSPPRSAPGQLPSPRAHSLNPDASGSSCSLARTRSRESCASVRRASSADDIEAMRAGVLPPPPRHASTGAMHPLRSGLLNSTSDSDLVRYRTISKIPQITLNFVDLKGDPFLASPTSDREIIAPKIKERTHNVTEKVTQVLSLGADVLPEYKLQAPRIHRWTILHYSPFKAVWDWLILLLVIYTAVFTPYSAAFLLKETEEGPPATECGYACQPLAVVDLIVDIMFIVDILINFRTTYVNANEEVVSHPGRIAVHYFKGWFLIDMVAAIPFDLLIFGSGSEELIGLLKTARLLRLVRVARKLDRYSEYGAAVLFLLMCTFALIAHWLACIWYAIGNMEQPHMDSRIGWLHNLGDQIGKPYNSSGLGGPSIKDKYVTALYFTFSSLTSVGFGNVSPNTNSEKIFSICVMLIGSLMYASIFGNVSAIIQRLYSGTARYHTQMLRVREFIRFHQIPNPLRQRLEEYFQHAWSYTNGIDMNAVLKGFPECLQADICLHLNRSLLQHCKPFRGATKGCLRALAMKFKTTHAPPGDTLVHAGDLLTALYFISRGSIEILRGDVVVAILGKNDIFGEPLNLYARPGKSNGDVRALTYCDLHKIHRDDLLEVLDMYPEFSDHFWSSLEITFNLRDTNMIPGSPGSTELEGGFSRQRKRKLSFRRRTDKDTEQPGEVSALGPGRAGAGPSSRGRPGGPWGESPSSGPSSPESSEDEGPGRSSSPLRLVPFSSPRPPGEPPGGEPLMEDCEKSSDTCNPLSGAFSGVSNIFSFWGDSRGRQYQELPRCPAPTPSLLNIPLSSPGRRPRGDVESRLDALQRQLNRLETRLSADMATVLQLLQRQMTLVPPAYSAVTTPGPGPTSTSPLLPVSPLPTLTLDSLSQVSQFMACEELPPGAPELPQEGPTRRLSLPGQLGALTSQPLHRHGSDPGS

hERG = hERG (Homo sapiens, UniProt Q12809); test: Inhibition of hERG current at 10 uM; format: toxicity
Sequence of hERG (Q12809 whole entry): as above

Rattus norvegicus = test: Effect on haloperidol catalepsy in po dosed rat assessed as […]; format: functional; conditions: read-out: MED
[4] = Metabolic stability assessed as half life in human liver microsomes; format: ADME, Microsome

Sequence of Glutamate receptor ionotropic, NMDA 2B (Q00960 whole entry, one chain of several): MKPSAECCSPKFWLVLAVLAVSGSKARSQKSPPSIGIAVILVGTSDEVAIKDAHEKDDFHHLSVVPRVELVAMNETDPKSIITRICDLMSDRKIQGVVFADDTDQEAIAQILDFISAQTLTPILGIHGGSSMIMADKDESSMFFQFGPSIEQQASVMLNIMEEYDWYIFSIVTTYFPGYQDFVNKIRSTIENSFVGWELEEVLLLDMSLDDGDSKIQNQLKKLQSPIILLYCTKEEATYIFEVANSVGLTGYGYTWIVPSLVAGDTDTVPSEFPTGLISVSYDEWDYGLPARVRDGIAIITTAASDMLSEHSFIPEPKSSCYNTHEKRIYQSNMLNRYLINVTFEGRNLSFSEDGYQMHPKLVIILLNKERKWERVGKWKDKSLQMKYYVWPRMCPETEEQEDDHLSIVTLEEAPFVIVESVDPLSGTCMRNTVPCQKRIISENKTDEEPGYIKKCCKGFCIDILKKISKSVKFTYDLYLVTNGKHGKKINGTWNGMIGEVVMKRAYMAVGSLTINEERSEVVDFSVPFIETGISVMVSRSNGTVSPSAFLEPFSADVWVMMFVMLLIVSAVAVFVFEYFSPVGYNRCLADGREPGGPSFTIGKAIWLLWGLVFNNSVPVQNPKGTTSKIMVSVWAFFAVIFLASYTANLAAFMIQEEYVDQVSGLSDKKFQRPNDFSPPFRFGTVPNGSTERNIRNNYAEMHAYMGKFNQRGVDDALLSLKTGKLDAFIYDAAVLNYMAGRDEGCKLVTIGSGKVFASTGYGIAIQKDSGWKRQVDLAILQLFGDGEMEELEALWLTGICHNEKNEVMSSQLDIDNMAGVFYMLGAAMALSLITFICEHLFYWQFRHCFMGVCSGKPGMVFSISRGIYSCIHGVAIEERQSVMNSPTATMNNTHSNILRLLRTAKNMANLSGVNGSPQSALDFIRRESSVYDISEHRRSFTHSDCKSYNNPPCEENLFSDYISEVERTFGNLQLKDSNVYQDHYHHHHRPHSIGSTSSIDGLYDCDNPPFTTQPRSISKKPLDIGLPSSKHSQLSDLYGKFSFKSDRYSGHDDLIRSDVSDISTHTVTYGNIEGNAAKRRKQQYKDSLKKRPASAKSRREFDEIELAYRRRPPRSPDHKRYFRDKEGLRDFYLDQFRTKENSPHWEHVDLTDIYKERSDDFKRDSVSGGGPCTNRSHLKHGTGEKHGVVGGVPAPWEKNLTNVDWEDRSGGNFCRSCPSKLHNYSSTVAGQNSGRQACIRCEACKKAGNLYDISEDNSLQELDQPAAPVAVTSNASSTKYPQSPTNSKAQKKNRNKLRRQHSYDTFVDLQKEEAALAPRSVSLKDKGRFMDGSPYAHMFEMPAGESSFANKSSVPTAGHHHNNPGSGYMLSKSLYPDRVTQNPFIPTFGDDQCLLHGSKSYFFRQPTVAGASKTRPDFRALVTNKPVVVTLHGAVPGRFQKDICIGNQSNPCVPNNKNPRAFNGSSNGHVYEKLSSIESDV

Row | SMILES | Ki [1] [nM] | other results
1 | O=C(NCc1cccc(OCCc2ccccc2)c1)c1ccc(O)cc1 | 5.6 | –
2 | O=C(NC[C@H]1CC[C@@H](CCOc2ccccc2)CC1)c1cn[nH]c1 | 4.2 | bioavailability [2]: 43%; minimal effective dose (Mus musculus): 3 mg/kg; IC50 [3]: > 30000 nM; inhibition at 10 µM (hERG): 36%
3 | O=C(NC[C@H]1CC[C@@H](COc2ccccc2)CC1)c1ccc(O)cc1 | 6.8 | minimal effective dose (Rattus norvegicus): 3 mg/kg; half-life [4]: 2.3 min
4 | O=C(NC[C@H]1CC[C@@H](COc2ccccc2)CC1)c1ccn[nH]1 | > 100 | –
5 | O=C(NC[C@H]1CC[C@@H](CCOc2ccccc2)CC1)c1cc[nH]c1 | 6.8 | –
6 | O=C(NC[C@H]1CC[C@@H](CCOc2ccccc2)CC1)c1cc(F)c(O)c(F)c1 | 8.5 | –
7 | O=C1CCc2cc(C(=O)NC[C@H]3CC[C@@H](COc4ccccc4)CC3)ccc2N1 | 18 | –
8 | Nc1[nH]ncc1C(=O)NC[C@H]1CC[C@@H](COc2ccccc2)CC1 | > 100 | –
9 | O=C(NC[C@H]1CC[C@@H](CCOc2ccccc2)CC1)c1ccn[nH]1 | 8.9 | half-life [4]: 36 min
10 | Nc1n[nH]cc1C(=O)NC[C@H]1CC[C@@H](CCOc2ccccc2)CC1 | 3.7 | half-life [4]: 59 min
11 | O=C(NC[C@H]1CC[C@@H](COc2ccccc2)CC1)c1cn[nH]c1 | 14 | half-life [4]: 44 min
12 | O=C(NC[C@H]1CC[C@@H](CCOc2ccccc2)CC1)c1ccc(=O)[nH]n1 | 5.6 | –
13 | O=C1C=CC(C(=O)NC[C@H]2CC[C@@H](COc3ccccc3)CC2)NN1 (stereo partly drawn) | > 100 | –
14 | O=C1C=CC(C(=O)NC[C@H]2CC[C@@H](CCOc3ccccc3)CC2)NN1 (stereo partly drawn) | 11 | –
15 | Cc1n[nH]c(C)c1C(=O)NC[C@H]1CC[C@@H](COc2ccccc2)CC1 | > 100 | –
16 | Cc1n[nH]c(C)c1C(=O)NC[C@H]1CC[C@@H](CCOc2ccccc2)CC1 | > 100 | –
17 | O=C(NC[C@H]1CC[C@@H](CCOc2ccccc2)CC1)c1ccc2[nH]ncc2c1 | 15 | –
18 | O=C(NC[C@H]1CC[C@@H](COc2ccccc2)CC1)c1cc[nH]c1 | 84 | –
19 | O=C(NC[C@H]1CC[C@@H](COc2ccccc2)CC1)c1ccc(=O)[nH]n1 | > 100 | –
20 | O=C(NCc1cccc(C(=O)NCc2ccccc2)c1)c1ccc(O)cc1 | 15 | IC50 [3]: > 30000 nM
21 | O=C1CCc2cc(C(=O)NC[C@H]3CC[C@@H](CCOc4ccccc4)CC3)ccc2N1 | 5.9 | –
22 | O=C(NC[C@H]1CC[C@@H](CCOc2ccccc2)CC1)c1ccc(O)cc1 | 20 | –
23 | O=C(NC[C@H]1CC[C@@H](COc2ccccc2)CC1)c1cc(F)c(O)c(F)c1 | 12 | –
